From PMC5655141, “Allosteric fine-tuning of the conformational equilibrium poises the chaperone BiP for post-translational regulation” (eLife, 2017)

What was measured:
Experiment in all cases: ITC
Format in all cases: binding
[1] = molecular target: T1, BiP* FL (full-length T229G BiP, BiP(1-641)) (Cricetulus griseus, UniProt G3I8R9, T229G)
T1 construct: gene HSPA5; full-length two-domain BiP, residues 1-641 as printed, non-cleavable N-terminal 6xHis tag, pET28a, E. coli BL21(DE3); ATPase-deficient T229G; non-AMPylated
T1 sequence (G3I8R9 1-641 T229G): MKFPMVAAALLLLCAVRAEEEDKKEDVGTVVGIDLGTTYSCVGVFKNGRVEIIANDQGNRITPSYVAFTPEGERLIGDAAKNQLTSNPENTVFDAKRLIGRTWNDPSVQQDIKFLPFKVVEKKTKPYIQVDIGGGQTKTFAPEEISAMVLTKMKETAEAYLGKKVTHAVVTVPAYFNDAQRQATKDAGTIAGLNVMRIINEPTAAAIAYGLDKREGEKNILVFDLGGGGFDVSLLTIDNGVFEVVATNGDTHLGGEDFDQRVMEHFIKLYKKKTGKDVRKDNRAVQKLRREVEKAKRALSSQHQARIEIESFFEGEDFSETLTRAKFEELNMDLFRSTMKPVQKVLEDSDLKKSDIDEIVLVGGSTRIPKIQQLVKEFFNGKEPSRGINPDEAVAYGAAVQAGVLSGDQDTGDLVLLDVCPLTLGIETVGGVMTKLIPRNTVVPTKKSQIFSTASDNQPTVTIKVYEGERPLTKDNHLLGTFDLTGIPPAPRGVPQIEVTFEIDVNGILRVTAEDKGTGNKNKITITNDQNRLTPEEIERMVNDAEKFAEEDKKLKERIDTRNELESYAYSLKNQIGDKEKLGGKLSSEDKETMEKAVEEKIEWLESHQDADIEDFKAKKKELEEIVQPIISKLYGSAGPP
Description: ITC on BiP* FL (full-length T229G BiP, BiP(1-641))

AMPylated BiP* FL = molecular target: T2, AMPylated BiP* FL (Cricetulus griseus, UniProt G3I8R9, T229G/V461F)
T2 construct: gene HSPA5; T229G
T2 sequence (G3I8R9 1-641 T229G/V461F): as the sequence (G3I8R9 1-641 T229G) above, with V461F counted along it
Description: ITC on AMPylated BiP* FL | nucleotide (ATP or ADP) binding to non-AMPylated and AMPylated V461F BiP* measured by ITC

BiP* NBD(1-413) = molecular target: T3, BiP* NBD(1-413) (Cricetulus griseus, UniProt G3I8R9, T229G)
T3 construct: gene HSPA5; T229G
T3 sequence (G3I8R9 1-413 T229G): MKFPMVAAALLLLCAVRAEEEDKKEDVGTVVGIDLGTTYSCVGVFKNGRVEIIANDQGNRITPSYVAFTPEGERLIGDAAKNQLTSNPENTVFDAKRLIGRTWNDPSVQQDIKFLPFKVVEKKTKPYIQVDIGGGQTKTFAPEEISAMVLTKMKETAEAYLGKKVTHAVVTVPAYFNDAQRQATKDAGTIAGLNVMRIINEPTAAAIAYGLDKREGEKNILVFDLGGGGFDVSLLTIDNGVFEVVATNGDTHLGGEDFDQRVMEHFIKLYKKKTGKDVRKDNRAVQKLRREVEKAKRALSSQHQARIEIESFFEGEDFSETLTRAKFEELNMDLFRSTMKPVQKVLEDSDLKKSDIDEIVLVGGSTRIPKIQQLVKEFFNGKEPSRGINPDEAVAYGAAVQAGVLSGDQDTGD

[2] = molecular target: T4, BiP* FL (full-length T229G BiP, BiP(1-641)) (Cricetulus griseus, UniProt G3I8R9, T229G/V461F)
T4 construct: gene HSPA5; full-length two-domain BiP, residues 1-641 as printed, non-cleavable N-terminal 6xHis tag, pET28a, E. coli BL21(DE3); ATPase-deficient T229G; non-AMPylated
T4 sequence (G3I8R9 1-641 T229G/V461F): as the sequence (G3I8R9 1-641 T229G) above, with V461F counted along it
Description: ITC on BiP* FL (full-length T229G BiP, BiP(1-641)) | ATP and ADP binding obtained from ITC experiments for FL BiP*

BiP* NBD(1-417) = molecular target: T5, BiP* NBD(1-417) (Cricetulus griseus, UniProt G3I8R9, T229G)
T5 construct: gene HSPA5; T229G
T5 sequence (G3I8R9 1-417 T229G): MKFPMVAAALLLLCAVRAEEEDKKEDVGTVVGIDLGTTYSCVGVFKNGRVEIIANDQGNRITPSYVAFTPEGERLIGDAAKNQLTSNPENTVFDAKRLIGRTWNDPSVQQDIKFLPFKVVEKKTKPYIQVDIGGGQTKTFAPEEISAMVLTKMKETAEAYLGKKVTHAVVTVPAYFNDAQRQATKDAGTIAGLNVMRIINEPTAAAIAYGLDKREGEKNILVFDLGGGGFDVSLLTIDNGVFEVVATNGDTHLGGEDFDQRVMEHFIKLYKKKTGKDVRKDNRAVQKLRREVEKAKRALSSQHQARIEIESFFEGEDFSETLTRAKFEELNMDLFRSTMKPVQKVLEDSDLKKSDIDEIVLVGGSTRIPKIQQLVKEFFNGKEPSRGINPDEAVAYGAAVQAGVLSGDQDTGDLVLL

Structure (SMILES)	Kd [1] [µM]	Kd (AMPylated BiP* FL) [µM]	Kd (BiP* NBD(1-413)) [µM]	Kd [2] [µM]	Kd (BiP* NBD(1-417)) [µM]
Nc1ncnc2c1ncn2[C@@H]1O[C@H](COP(=O)(O)OP(=O)(O)O)[C@@H](O)[C@H]1O [ADP]	5.73	2.36	5.27	4.49	3.94
Nc1ncnc2c1ncn2[C@@H]1O[C@H](COP(=O)(O)OP(=O)(O)OP(=O)(O)O)[C@@H](O)[C@H]1O [ATP]		0.07		0.21	
